Data reported in ChEMBL document CHEMBL1201862, “PubChem BioAssay data set” (2004).
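The compound was tested at five concentrations on cells cultured in 96-well plates, with a 48-hour exposure period. GI50 is the concentration that inhibits growth by half.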 Activity calls are given as the source filed them. Cut-off read from the data, not from the text of the source: active = GI50 up to about 1.1 µM and inactive = higher.

How the values were obtained:
Assay in all cases: DTP human tumour cell line panel, 48 h
786-0 = test system: 786-0
A498 = test system: A498
ACHN = test system: ACHN
CAKI-1 = test system: CAKI-1
DU-145 = test system: DU-145
HCC 2998 = test system: HCC 2998
HT-29 = test system: HT-29
MDA-N = test system: MDA-N
NCI-H460 = test system: NCI-H460
NCI/ADR-RES = test system: NCI/ADR-RES
OVCAR-3 = test system: OVCAR-3
OVCAR-4 = test system: OVCAR-4
OVCAR-5 = test system: OVCAR-5
PC-3 = test system: PC-3
RPMI-8226 = test system: RPMI-8226
SR = test system: SR
T47D = test system: T47D
UACC-257 = test system: UACC-257
UACC-62 = test system: UACC-62

Measured: GI50

O=C(NC(O)(C(F)(F)F)C(F)(F)F)c1ccccc1
inactive: 786-0 > 100 µM | A498 > 100 µM | ACHN > 100 µM | CAKI-1 > 100 µM | DU-145 > 100 µM | HCC 2998 > 100 µM | HT-29 > 100 µM | MDA-N > 100 µM | NCI-H460 > 100 µM | NCI/ADR-RES > 100 µM | OVCAR-3 > 100 µM | OVCAR-4 > 100 µM | OVCAR-5 > 100 µM | PC-3 > 100 µM | RPMI-8226 > 100 µM | SR > 100 µM | T47D > 100 µM | UACC-257 > 100 µM

C=C[C@H]1CC[C@H]2[C@@H]3CC=C4C[C@@H](OC5OCC(O)C(O)C5O)CC[C@]4(C)[C@H]3CC[C@]12C (stereo not given in full)
inactive: 786-0 15.3 µM | A498 4.22 µM | ACHN 2.83 µM | CAKI-1 6.62 µM | DU-145 34.1 µM | HT-29 24.4 µM | MDA-N 17.6 µM | NCI-H460 13.1 µM | NCI/ADR-RES 15.9 µM | OVCAR-3 11.9 µM | OVCAR-5 11.7 µM | PC-3 14.3 µM | RPMI-8226 81.7 µM | SR 14.7 µM | T47D 14.3 µM | UACC-257 82.8 µM | UACC-62 15.5 µM

CC(C)CCc1n[nH]c(=O)n1/N=C\c1ccccc1
inactive: 786-0 > 100 µM | A498 49 µM | ACHN > 100 µM | CAKI-1 > 10 µM | DU-145 > 100 µM | HCC 2998 > 100 µM | HT-29 > 100 µM | MDA-N > 100 µM | NCI-H460 > 100 µM | NCI/ADR-RES 57.4 µM | OVCAR-3 > 100 µM | OVCAR-4 > 100 µM | OVCAR-5 > 100 µM | T47D > 100 µM | UACC-257 > 100 µM | UACC-62 > 100 µM

CCOC(=O)CCC(NC(=O)c1ccc(Oc2nc3ccccc3nc2-c2ccccc2)cc1)C(=O)OCC (stereo not given)
inactive: 786-0 3.67 µM | A498 > 50.1 µM | ACHN 7.35 µM | CAKI-1 19.5 µM | DU-145 41 µM | HCC 2998 > 100 µM | HT-29 2.48 µM | MDA-N 45 µM | NCI-H460 > 80.4 µM | NCI/ADR-RES 6.34 µM | OVCAR-3 15.4 µM | OVCAR-4 6.55 µM | OVCAR-5 > 55 µM | PC-3 92.9 µM | RPMI-8226 37.6 µM | SR > 29.8 µM | T47D > 29.8 µM | UACC-257 > 100 µM | UACC-62 32.7 µM
